Holding throughout (assay type): cell-based, human
Common to all, as to conditions: drug added day 4, read day 7, general-purpose medium

For data set [1], the system named is HT29 cells. Description: Anti-cancer drug evaluation, HT29 cells cultured using stromal stamp, ATP assay. The protocol: HT29 (ATCC, HTB-38), a human colon adenocarcinoma cell line, was seeded in the third vessel (24-well plate) in Table 3 above at 1×10^3 cells/well. The stromal stamp prepared in Example 1 was then placed on each well.
On the fourth day after the start of the culture, an anti-cancer drug SN-38 (Selleck, S4908) was added to the medium in each well at a concentration of 0, 0.01, 0.1, 1 or 10 μM. On the seventh day after the start of culture, the stromal stamps were removed and the number of HT29 cells was counted by ATP assay. The cell viability was calculated using the following formula (2) to evaluate the drug efficacy.

For data set [2], the system named is HT29 cells. Description: Anti-cancer drug evaluation, HT29 cells, 2D culture method, ATP assay. The protocol:
On the fourth day after the start of the culture, an anti-cancer drug SN-38 (Selleck, S4908) was added to the medium in each well at a concentration of 0, 0.01, 0.1, 1 or 10 μM. On the seventh day after the start of culture, the number of HT29 cells was counted by ATP assay. The cell viability was calculated using the above formula (2) to evaluate the drug efficacy.

Data set [3] relates to HT29 cells. Description: Anti-cancer drug evaluation, HT29 cells on stromal cell layer, 3D culture method, EpCAM immunofluorescence. The protocol: 2.0×10^6 NHDFs and 3.0×10^4 HUVECs were suspended in an equal volume mixture of 150 μL of 0.2 mg/mL heparin/50 mM Tris-HCl buffer (pH 7.4) and 150 μL of 0.2 mg/mL collagen/5 mM acetate solution (pH 3.7). The resulting mixture was centrifuged at 1,000×g for 1 minute at room temperature to obtain a viscous mass. The obtained viscous mass was suspended in DMEM containing 10% FBS. The entire suspension was seeded in a 24-well Transwell culture insert and centrifuged at 400×g (gravitational acceleration) at room temperature for 1 minute. As a result, a cell layer (i.e., a cell layer containing cells forming the stroma) was formed on the membrane of the Transwell culture insert.
Subsequently, HT29 cells were seeded on the cell layer at 1×10^3 cells/well and cultured in the general-purpose medium shown in Table 4 above. On the fourth day after the start of the culture, an anti-cancer drug SN-38 (Selleck, S4908) was added to the medium in each well at a concentration of 0, 0.01, 0.1, 1 or 10 μM.
On the seventh day after the start of culture, the cells were fixed and stained for EpCAM with immunofluorescence staining, and the stained cells were counted as HT29 cells. More specifically, the area of fluorescence emission from cancer cells was calculated using a microscope system (Operetta CLS, PerkinElmer) in the fluorescence mode (fluorescence: Alexa 647). The cell viability was calculated using the following formula (3) to evaluate the drug efficacy.

Consider `CCc1c2c(nc3ccc(O)cc13)-c1cc3c(c(=O)n1C2)COC(=O)[C@]3(O)CC` [SN-38], for which the “Cell viability (%)” value was 103.3 ± 14.5% in the data set with HT29 cells [1] (0.01 μM); 72.87 ± 14.57% in the data set with HT29 cells [1] (0.1 μM); 49.3 ± 13.05% with HT29 cells [1] (1 μM); 36.5 ± 10.24% with HT29 cells [1] (10 μM); 78.3 ± 9.45% in the data set on HT29 cells [2] (0.01 μM); 54.3 ± 5.45% in the data set on HT29 cells [2] (0.1 μM). For the same compound, the “Cell viability (%)” value in the data set on HT29 cells [2] (1 μM) is reported as 35 ± 3.24%; with HT29 cells [2] (10 μM), 21.3 ± 4.23%; in the data set on HT29 cells [3] (0.01 μM), 97.8 ± 20.04%; in the data set on HT29 cells [3] (0.1 μM), 72.87 ± 14.57%; with HT29 cells [3] (1 μM), 54.21 ± 13.05%; in the data set with HT29 cells [3] (10 μM), 34.2 ± 9.47%.
